Consider 87 compounds from a melting point compilation (Tetko et al.; mined from patent text by program, amines drawn as free bases though some values may be those of a salt).

In general, melting point refers to the temperature, or range, at which the solid turns liquid. Consider `N#CCc1ccc2oc([N+](=O)[O-])c(-c3ccccc3)c2c1`, for which the melting point fell in the range of 166 to 168 °C. Then `Cc1c2c(cc3c(=O)c4ccccc4oc13)CC(CO)O2` (configuration not stated), with 242 to 243 °C; and `COc1cc(C(=O)N(C(C)C)C2CCCCC2)ccc1Cn1c(-c2ccccc2Cl)nc2cccnc21`, with 121 to 123 °C. `COc1cc2c(cc1OC)-c1c(C)nc(Nc3c(C)cccc3C)n1CC2` registered a melting point of 234 to 236 °C.

As for `O=c1[nH]c(-c2ccc(CCCl)cc2)cs1`, the melting point is 226 to 229 °C. For `CC(C(=O)O)c1ccc2c(c1)C(=O)Cc1c(Cl)cccc1S2` (configuration not stated) the value was 163 to 164 °C; for `NC(=O)c1[nH]c2ccc(Cl)cc2c1S(=O)(=O)c1ccccc1`, 253 to 254 °C. For `COc1cc2c(N3CCN(C(=O)Nc4ccc(Oc5ccccc5)cc4)CC3)ncnc2cc1OC(C)C` the value was 157 to 160 °C; for `CCOC(=O)N1CCN(CCNc2ncnc3c2sc2nc(-c4ccco4)c4c(c23)CC(C)(C)CC4)CC1`, 99.1 to 101 °C. In turn, `CCn1cc(-c2cc(-c3nc(C(C)C)[nH]c3-c3cccc(C)n3)ccc2F)cn1` gave a melting point of 76 to 78 °C. Consider `CCOC(=O)c1ccc(-c2cnc3c(c2)N(Cc2cc(F)ccc2F)CCN3)cc1`, for which the melting point was in the range of 173 to 174 °C. Then `Cc1cccc2c1N(CC(=O)N1CC3CCC(CC3)C1)C(=O)C(NC(=O)Nc1cccc(C=O)c1)N=C2c1ccccc1F` (configuration not stated), with 237 to 242 °C; and `COCCN(C)Cc1c(-c2ccc([N+](=O)[O-])cc2)sc2c1c(=O)n(-c1ccc3c(c1)OCO3)c(=O)n2Cc1c(F)cccc1F`, with 190 to 192 °C. The compound `COc1ccc(-c2nc3c(C(=O)NC4CC5CCCC(C4)N5C)cccc3o2)cc1` (configuration not stated) displayed a melting point of 103 to 105 °C. Then `CCCCCCC1=CC(O)(C(Br)Br)N(CCCC)C1=O` (configuration not stated), with 85 to 86 °C. The compound `CC(C)(C)Cc1ccc(C#N)c(=O)[nH]1` registered a melting point of 211 to 212 °C.

Turning to `O=C(O)COCCc1cc2cc(Cl)ccc2n1S(=O)(=O)c1ccccc1`, the melting point was 135 to 137 °C. Consider `COc1cc(O)c(C(=O)C=Cc2ccc(OC(C)=O)cc2)c(OC)c1`, for which the melting point was 142 °C. `CCCc1nc2c(N)nc3ccccc3c2n1CCCCNC(=O)Nc1ccccc1` displayed a melting point of 183 to 184 °C. `O=C(Nc1ccccc1)O[C@H]1CSC(c2ccccc2)=N[C@@H]1c1ccccc1` (racemic) returned a melting point of 159 °C. Then `Cc1c(N)ccc(Cc2ccc(N)c(C)c2C)c1C`, with 141 to 143 °C; and `Cc1ccc(SCC(=O)c2cc(O)c(O)c([N+](=O)[O-])c2)cc1`, with 115 to 116 °C; and `COC(C)c1nc(C(C)(C)O)c(C(=O)O)n1Cc1ccc(-c2ccccc2-c2nnn[nH]2)cc1` (configuration not stated), with 174 to 185 °C. With `COc1ccc(-c2nc(SC)[nH]c2-c2ccc(OC)cc2)cc1`, the melting point was in the range of 157 to 158 °C. Then `CSc1nc(=O)[nH]c(C)c1Cl`, with 268 °C. With `N#Cc1cc(O)n(-c2ccccc2)n1`, the melting point was 190 °C.

On to `CCOC(=O)Cn1ncc(-c2ccccc2)c1-c1ccc(O)cc1`, for which the melting point was 130 to 135 °C. Then `COc1ccc2nc3c(cc2c1)c(C(N)=O)nn3C`, with 268 to 270 °C. Take `O=C(O)CCc1ccc(OCc2ccc(Oc3ccccc3)cc2)c(F)c1`: the melting point lay within 123 to 125 °C. In turn, `Clc1ccc2c(c1)N=C(N1CCN(C3CC3)CC1)c1ccccc1N2` returned a melting point of 196 to 199 °C. For `CCCC1=C(C#N)C(c2ccccc2Cl)c2c(n[nH]c2-c2ccco2)N1` (configuration not stated) the value was 253 °C.

In the case of `Cc1cccc(NC(=O)NC2N=C(C(C)C)c3cccc(C)c3N(CC(=O)C3CCCCC3)C2=O)c1` (configuration not stated), the melting point lay within 142 to 146 °C. For `CCCOc1ccc2c(c1)[C@H](c1ccc(OC)cc1OCC(=O)O)[C@@H](CC(=O)O)[C@@H]2c1ccc2c(c1)OCO2` (racemic) the value was 210 to 212 °C. For `Nc1nc(N)c2c(ccc3c2cc(Cl)n3Cc2ccccc2)n1` the value was 285 to 286 °C; for `CN(Cc1cc2c3c(c1)c(=O)c(C(=O)NCc1ccc(Cl)cc1)cn3CC(=O)N2CCO)C[C@@H](O)c1ccco1`, 166 to 167 °C; for `Cc1cccc(-n2c(-c3cc(-c4ccc(S(C)(=O)=O)cc4)c(N4CCOCC4)s3)nc3ccccc3c2=O)c1`, 208 to 210 °C. The compound `Nc1ncccc1C(=O)NCC1CCN(CC2COc3ccc(F)cc3O2)CC1` (configuration not stated) gave a melting point of 141 to 143 °C. Then `Cc1ccc(S(=O)(=O)N2CCC[C@H]2C(=O)N[C@@H](Cc2ccc(OCCCN(C)Cc3ccccc3)cc2)C(=O)O)cc1`, with 87 to 90 °C. Compound `NS(=O)(=O)c1ccc(-c2cccc(-c3nc(-c4ccc(C(F)(F)F)nc4)cc(C(F)(F)F)n3)c2)s1` yielded a melting point of 250 °C. On to `COc1ccc(S(=O)(=O)N(CCC(F)(F)F)c2ccccc2/C=C/c2ccncc2)cc1`, for which the melting point lay within 124 to 126 °C. For `O=C(Oc1ccnc(OC(=O)c2ccccc2)c1)c1ccccc1` the value was 100 to 102 °C. For `COC(=O)c1sc(CBr)cc1NC(=O)Nc1ccc(C)cc1` the value was 157 to 158 °C; for `N#Cc1cccc(Oc2ccccc2N)c1C#N`, 132 °C.

Regarding `CS(=O)(=O)c1ccc(S(C)(=O)=O)nc1`, the melting point fell in the range of 205 to 207 °C. For `CCOc1cc2ncc(C#N)c(Nc3ccc(F)c(Cl)c3)c2cc1NC(=O)C=CCN(C)C` the value was 196 to 198 °C. The compound `CCNC(=O)c1c(C(F)(F)F)cccc1[Si](C)(C)C` displayed a melting point of 134 to 135 °C. In the case of `Oc1ccc(-c2ccc3cc(O)nc-3o2)cc1`, the melting point was > 300 °C. For `O=C(CNC(=O)c1cc([N+](=O)[O-])ccc1Cl)OCc1ccccc1` the value was 116 to 118 °C; for `CCSc1nccn1-c1ccc(O)cc1`, 165 °C.

`CCN(C(=O)COC(C)=O)C1=CC(C)(C)CC(C)=C1` gave a melting point of 38 to 40 °C.

In the case of `Cc1[nH]c2ccccc2c1C1=C(c2c(C)[nH]c3ccccc23)C(=O)N(C)C1=O`, the melting point is > 290 °C.

`CCCOc1ccc(CNC=C2C(=O)N(O)C(=O)c3ccccc32)cc1O` gave a melting point of 176 to 178 °C. As to `CCOC(=O)Cn1c2c(n(Cc3ccccc3)c(=O)c1=O)CCC1=C2C=C(N)CC1`, the melting point is 231 °C. Then `C#CCOc1cc(Oc2ccc(OC)cc2)ncn1`, with 72 °C; and `O=C(Nc1c(C(O)(C(F)(F)F)C(F)(F)F)ccc2ccccc12)c1cccs1`, with 191 to 192 °C; and `Cc1oc(-c2ccccc2)nc1CCOc1ccc(CCCBr)cc1`, with 78 to 79 °C.

`Oc1cccc2c1CCCC2n1cc[nH]c1=S` (configuration not stated) had a melting point of 188 to 190 °C. For `Cc1oc(-c2ccccc2)nc1CCC(=O)c1ccc(Br)cc1` the value was 80 to 81 °C; for `COC(=O)[C@@H]1NC(=O)[C@@H]1NC(=O)COc1ccccc1` (relative stereo), 140 to 141 °C. Then `CSc1nc(NN)c(C#N)c(N2CCc3ccccc3CC2)n1`, with > 200 °C; and `O=C1C=C(c2ccccc2)C(=Nc2ccccc2)N1`, with 180 to 183 °C. `O=C(O)c1ccc(OCCNC(=O)C2Cc3ccccc3N2S(=O)(=O)c2ccc(-c3ccc(F)cc3Cl)cc2)nc1` (configuration not stated) returned a melting point of 88 to 98 °C. `COc1nc(C)nc(NC(=O)NS(=O)(=O)c2cccc3c2C(Cl)=CC3)n1` gave a melting point of 168 to 170 °C. Then `CN(C)C(=O)CCC(NC(=O)C=Cc1ccco1)C(=O)N(C)C` (configuration not stated), with 178 to 180 °C; and `Cc1c(SCCCCl)ccnc1CSc1nc2ccccc2[nH]1`, with 112 to 114 °C; and `COC(=O)c1ccc(-c2cn(Cc3cccnc3)c3c2CCc2nc4c(nc2-3)C(C)(C)CCC4(C)C)cc1`, with 245 to 247 °C.

Consider `CNC(=O)c1cc(F)ccc1CNC(=O)c1nc2n(c(=O)c1OCc1ccccc1)CCN2c1ccccc1`, for which the melting point was in the range of 194 to 195 °C.

In the case of `CCN(CC)c1cc2c(cc1C)Nc1c(cc(NC(C)=O)c3ncn(C)c13)O2`, the melting point fell in the range of 217 to 218 °C.

In turn, `O=c1oc(-c2ccc(SC(F)(F)F)cc2)nc2cccc(Cl)c12` showed a melting point of 135 to 140 °C.

`CCCCCCCCOc1ccc(C#N)c(O)c1` came in with a melting point of 69 to 71 °C. Then `O=c1cnc2cc(C(c3cccc(Cl)c3)n3ccnc3)ccc2[nH]1` (configuration not stated), with 253 °C; and `CC(C)(Nc1ccc(Cl)cc1[N+](=O)[O-])C(=O)O`, with 162 to 164 °C. For `Cc1ccc(-c2ccc(Cl)cc2)cc1-c1c(O)cnn(C)c1=O` the value was > 250 °C. Compound `[O-][N+](=CCCc1ccccc1)C1CCCCC1` displayed a melting point of 97.2 °C. With `COc1ccc(-c2nnc(C(C)C)n2-c2ccc(OC)cc2)cc1`, the melting point stood at 162 °C. Compound `CC(C)(C)Sc1ccc(CC=CN(O)C(N)=O)s1` yielded a melting point of 111 to 113 °C.

Regarding `O=C(O)/C=C/c1cccc(-c2nc(=O)c3ccccc3s2)n1`, the melting point was found to be 116 °C. For `Nc1c(I)c(C(=O)NCC(O)CO)c(I)c(C(=O)NCC(O)CO)c1I` (single isomer, unassigned; (-)) the value was 203 °C.

Turning to `CCOC(=O)c1ccc2[nH]cc(CCCI)c2c1`, the melting point is 81 °C. Then `CC(C)c1cccc(C(C)C)c1NC(=O)CNC(c1ccccc1)c1ccccc1Cl` (configuration not stated), with 119 to 121 °C; and `CCOC(=O)C(=CNc1nonc1C)C(=O)c1cc(F)c(F)c(F)c1F`, with 88 to 92 °C. `CCCCCCc1cc2c(cc1C(=O)Oc1ccc(C(=O)O)cn1)CCCCC2(C)C` returned a melting point of 119 to 120 °C. Then `COc1ccc(-c2cccc3c(C(C)C)c(C)nn23)c(Cl)c1`, with 112 to 115 °C. Consider `CCOc1nccc(Cl)c1NC(=O)OC(C)(C)C`, for which the melting point lay within 73 to 74 °C. Compound `N#CC1=C(Nc2ccc(F)cc2)CCCC1` yielded a melting point of 79 to 82 °C. The compound `O=Cc1cc(C=O)c(C#Cc2ccccc2)cc1C#Cc1ccccc1` gave a melting point of 170 to 172 °C. `Clc1ccc(Nc2cncc(-n3ncc4ccccc43)n2)cc1` had a melting point of 204 to 207 °C.
